Values of other authors, collected in US20240401031A1, “Platform Using iPSC-Derived Cardiomyocytes Carrying Gene Variants as Models of Cardiac Disease and Drug-Response” (SRI INTERNATIONAL, priority 2021, published 2024).

Conditions: source CredibleMeds
In the case of Cl.Cl.OCCN1CCN(CCC=C2c3ccccc3Sc3ccc(C(F)(F)F)cc32)CC1 (mixture of isomers) [Flupentixol], the “Risk (Torsade de Pointes)” value is listed as “(PR)”. For C[C@]12CC[C@H](O)CC1=CC[C@@H]1[C@@H]2CC[C@]2(C)C(c3cccnc3)=CC[C@@H]12 [Abiraterone], the “Risk (Torsade de Pointes)” value is listed as “(CR)”. For COc1cc2nc(N(C)CCCNC(=O)C3CCCO3)nc(N)c2cc1OC (centres unmarked) [Alfuzosin], the “Risk (Torsade de Pointes)” value is listed as “(PR)”. In the case of CCCCc1oc2ccccc2c1C(=O)c1cc(I)c(OCCN(CC)CC)c(I)c1 [Amiodarone], the “Risk (Torsade de Pointes)” value is given as “(KR)”. For CCN1CCCC1CNC(=O)c1cc(S(=O)(=O)CC)c(N)cc1OC (centres unmarked) [Amisulpride], the “Risk (Torsade de Pointes)” value is given as “(CR)”. In the case of CN(C)CCC=C1c2ccccc2CCc2ccccc21 [Amitriptyline], the “Risk (Torsade de Pointes)” value is listed as “(CR)”. In the case of CC(N)Cc1ccccc1 (centres unmarked) [Amphetamine], the “Risk (Torsade de Pointes)” value is listed as “(SR)”. For O=C1CN2Cc3c(ccc(Cl)c3Cl)N=C2N1 [Anagrelide], the “Risk (Torsade de Pointes)” value is given as “(KR)”. In the case of CNC(=O)c1ccc(N2C(=S)N(c3cnc(C#N)c(C(F)(F)F)c3)C(=O)C23CCC3)cc1F [Apalutamide], the “Risk (Torsade de Pointes)” value is listed as “(PR)”. For CN1CCc2cccc3c2[C@H]1Cc1ccc(O)c(O)c1-3 [Apomorphine], the “Risk (Torsade de Pointes)” value is listed as “(PR)”. In the case of O=C1CCc2ccc(OCCCCN3CCN(c4cccc(Cl)c4Cl)CC3)cc2N1 [Aripiprazole], the “Risk (Torsade de Pointes)” value is given as “(PR)”. In the case of [As] [Arsenic], the “Risk (Torsade de Pointes)” value is listed as “(KR)”. For CN1CC2c3ccccc3Oc3ccc(Cl)cc3C2C1 (centres unmarked) [Asenapine], the “Risk (Torsade de Pointes)” value is listed as “(PR)”. For COc1ccc(CCN2CCC(Nc3nc4ccccc4n3Cc3ccc(F)cc3)CC2)cc1 [Astemizole], the “Risk (Torsade de Pointes)” value is given as “(KR)”. In the case of COC(=O)N[C@H](C(=O)N[C@@H](Cc1ccccc1)[C@@H](O)CN(Cc1ccc(-c2ccccn2)cc1)NC(=O)[C@@H](NC(=O)OC)C(C)(C)C)C(C)(C)C [Atazanavir], the “Risk (Torsade de Pointes)” value is given as “(CR)”. In the case of CNCC[C@@H](Oc1ccccc1C)c1ccccc1 [Atomoxetine], the “Risk (Torsade de Pointes)” value is given as “(PR)”. For CC[C@H]1OC(=O)[C@H](C)[C@@H](O[C@H]2C[C@@](C)(OC)[C@@H](O)[C@H](C)O2)[C@H](C)[C@@H](O[C@@H]2O[C@H](C)C[C@H](N(C)C)[C@H]2O)[C@](C)(O)C[C@@H](C)CN(C)[C@H](C)[C@@H](O)[C@]1(C)O [Azithromycin], the “Risk (Torsade de Pointes)” value is listed as “(KR)”. For Cn1c(CCCC(=O)O)nc2cc(N(CCCl)CCCl)ccc21 [Bendamustine], the “Risk (Torsade de Pointes)” value is given as “(PR)”. For NS(=O)(=O)c1cc2c(cc1C(F)(F)F)NC(Cc1ccccc1)NS2(=O)=O (centres unmarked) [Bendroflumethiazide], the “Risk (Torsade de Pointes)” value is given as “(CR)”. In the case of C[C@@H](Cc1ccccc1)N(C)Cc1ccccc1 [Benzphetamine], the “Risk (Torsade de Pointes)” value is listed as “(SR)”. For CC(C)COCC(CN(Cc1ccccc1)c1ccccc1)N1CCCC1 (centres unmarked) [Bepridil], the “Risk (Torsade de Pointes)” value is listed as “(KR)”. In the case of COc1ccc(NC(=O)c2ccc(C(=N)N(C)C)cc2)c(C(=O)Nc2ccc(Cl)cn2)c1 [Betrixaban], the “Risk (Torsade de Pointes)” value is given as “(PR)”. For CC(O)(CS(=O)(=O)c1ccc(F)cc1)C(=O)Nc1ccc(C#N)c(C(F)(F)F)c1 (centres unmarked) [Bicalutamide], the “Risk (Torsade de Pointes)” value is listed as “(PR)”. For CC(C)C[C@H](NC(=O)[C@H](Cc1ccccc1)NC(=O)c1cnccn1)B(O)O [Bortezomib], the “Risk (Torsade de Pointes)” value is given as “(PR)”. In the case of COc1cc(Nc2c(C#N)cnc3cc(OCCCN4CCN(C)CC4)c(OC)cc23)c(Cl)cc1Cl [Bosutinib], the “Risk (Torsade de Pointes)” value is listed as “(PR)”. For COc1cc2nccc(Oc3ccc(NC(=O)C4(C(=O)Nc5ccc(F)cc5)CC4)cc3)c2cc1OC [Cabozantinib], the “Risk (Torsade de Pointes)” value is given as “(PR)”. In the case of CCCCCOC(=O)Nc1nc(=O)n([C@@H]2O[C@H](C)[C@@H](O)[C@H]2O)cc1F [Capecitabine], the “Risk (Torsade de Pointes)” value is given as “(PR)”. For Cc1cc(Nc2ncc(Cl)c(Nc3ccccc3S(=O)(=O)C(C)C)n2)c(OC(C)C)cc1C1CCNCC1 [Ceritinib], the “Risk (Torsade de Pointes)” value is given as “(PR)”. In the case of [Cs] [Cesium], the “Risk (Torsade de Pointes)” value is given as “(KR)”. For CCN(CC)CCCC(C)Nc1ccnc2cc(Cl)ccc12 (centres unmarked) [Chloroquine], the “Risk (Torsade de Pointes)” value is listed as “(KR)”. In the case of CN(C)CCCN1c2ccccc2Sc2ccc(Cl)cc21 [Chlorpromazine], the “Risk (Torsade de Pointes)” value is given as “(KR)”. For CN(C)CC/C=C1/c2ccccc2Sc2ccc(Cl)cc21 [Chlorprothixene], the “Risk (Torsade de Pointes)” value is given as “(KR)”. For O=C1CCc2cc(OCCCCc3nnnn3C3CCCCC3)ccc2N1 [Cilostazol], the “Risk (Torsade de Pointes)” value is listed as “(KR)”. For CN/C(=N/CCSCc1nc[nH]c1C)NC#N [Cimetidine], the “Risk (Torsade de Pointes)” value is listed as “(CR)”. For O=C(O)c1cn(C2CC2)c2cc(N3CCNCC3)c(F)cc2c1=O [Ciprofloxacin], the “Risk (Torsade de Pointes)” value is given as “(KR)”. In the case of COc1cc(N)c(Cl)cc1C(=O)NC1CCN(CCCOc2ccc(F)cc2)CC1OC (centres unmarked) [Cisapride], the “Risk (Torsade de Pointes)” value is given as “(KR)”. In the case of CN(C)CCCC1(c2ccc(F)cc2)OCc2cc(C#N)ccc21 (centres unmarked) [Citalopram], the “Risk (Torsade de Pointes)” value is listed as “(KR)”. In the case of CC[C@H]1OC(=O)[C@H](C)[C@@H](O[C@H]2C[C@@](C)(OC)[C@@H](O)[C@H](C)O2)[C@H](C)[C@@H](O[C@@H]2O[C@H](C)C[C@H](N(C)C)[C@H]2O)[C@](C)(OC)C[C@@H](C)C(=O)[C@H](C)[C@@H](O)[C@]1(C)O [Clarithromycin], the “Risk (Torsade de Pointes)” value is listed as “(KR)”. In the case of CC(C)/N=c1\cc2n(-c3ccc(Cl)cc3)c3ccccc3nc-2cc1Nc1ccc(Cl)cc1 [Clofazimine], the “Risk (Torsade de Pointes)” value is given as “(PR)”. In the case of CN1CCN(C2=Nc3ccccc3Sc3ccc(Cl)cc32)CC1 [Clotiapine], the “Risk (Torsade de Pointes)” value is listed as “(PR)”. For O=C(c1ccc(F)c(F)c1Nc1ccc(I)cc1F)N1CC(O)([C@@H]2CCCCN2)C1 [Cobimetinib], the “Risk (Torsade de Pointes)” value is given as “(PR)”. For COC(=O)[C@H]1[C@@H](OC(=O)c2ccccc2)C[C@@H]2CC[C@H]1N2C [Cocaine], the “Risk (Torsade de Pointes)” value is given as “(KR)”. For C[C@@H](Oc1cc(-c2cnn(C3CCNCC3)c2)cnc1N)c1c(Cl)ccc(F)c1Cl [Crizotinib], the “Risk (Torsade de Pointes)” value is listed as “(PR)”. For CC(CN(C)C)CN1c2ccccc2Sc2ccc(C#N)cc21 (centres unmarked) [Cyamemazine], the “Risk (Torsade de Pointes)” value is given as “(PR)”. For CC(C)(C)c1nc(-c2cccc(NS(=O)(=O)c3c(F)cccc3F)c2F)c(-c2ccnc(N)n2)s1 [Dabrafenib], the “Risk (Torsade de Pointes)” value is given as “(PR)”. In the case of Cc1nc(Nc2ncc(C(=O)Nc3c(C)cccc3Cl)s2)cc(N2CCN(CCO)CC2)n1 [Dasatinib], the “Risk (Torsade de Pointes)” value is given as “(PR)”. For C[C@]1(COc2ccc(N3CCC(Oc4ccc(OC(F)(F)F)cc4)CC3)cc2)Cn2cc([N+](=O)[O-])nc2O1 [Delamanid], the “Risk (Torsade de Pointes)” value is listed as “(PR)”. In the case of CNCCCN1c2ccccc2CCc2ccccc21 [Desipramine], the “Risk (Torsade de Pointes)” value is given as “(PR)”. In the case of [2H]C([2H])([2H])Oc1cc2c(cc1OC([2H])([2H])[2H])C1CC(=O)C(CC(C)C)CN1CC2 (centres unmarked) [Deutetrabenazine], the “Risk (Torsade de Pointes)” value is given as “(PR)”. In the case of Cc1cccc([C@H](C)c2cnc[nH]2)c1C [Dexmedetomidine], the “Risk (Torsade de Pointes)” value is given as “(PR)”. For C[C@H](N)Cc1ccccc1 [Dextroamphetamine], the “Risk (Torsade de Pointes)” value is listed as “(SR)”. For CC(C)N(CCC(C(N)=O)(c1ccccc1)c1ccccn1)C(C)C (centres unmarked) [Disopyramide], the “Risk (Torsade de Pointes)” value is given as “(KR)”. For CC(CCc1ccc(O)cc1)NCCc1ccc(O)c(O)c1 (centres unmarked) [Dobutamine], the “Risk (Torsade de Pointes)” value is given as “(SR)”. In the case of CN(CCOc1ccc(NS(C)(=O)=O)cc1)CCc1ccc(NS(C)(=O)=O)cc1 [Dofetilide], the “Risk (Torsade de Pointes)” value is listed as “(KR)”. In the case of NCCc1ccc(O)c(O)c1 [Dopamine], the “Risk (Torsade de Pointes)” value is given as “(SR)”. For CN(C)CCC=C1c2ccccc2COc2ccccc21 [Doxepin], the “Risk (Torsade de Pointes)” value is listed as “(CR)”. For CCCCc1oc2ccc(NS(C)(=O)=O)cc2c1C(=O)c1ccc(OCCCN(CCCC)CCCC)cc1 [Dronedarone], the “Risk (Torsade de Pointes)” value is listed as “(KR)”. In the case of O=C(CCCN1CC=C(n2c(=O)[nH]c3ccccc32)CC1)c1ccc(F)cc1 [Droperidol], the “Risk (Torsade de Pointes)” value is listed as “(KR)”. For N[C@H](C(=O)O)[C@H](O)c1ccc(O)c(O)c1 [Droxidopa], the “Risk (Torsade de Pointes)” value is given as “(SR)”. For O=C1Nc2ccc(Cl)cc2[C@@](C#CC2CC2)(C(F)(F)F)O1 [Efavirenz], the “Risk (Torsade de Pointes)” value is listed as “(PR)”. In the case of CCCCCCCC(=O)N[C@H](CN1CCCC1)[C@H](O)c1ccc2c(c1)OCCO2 [Eliglustat], the “Risk (Torsade de Pointes)” value is given as “(PR)”. For COC(=O)N[C@@H](C)CNc1nccc(-c2cn(C(C)C)nc2-c2cc(Cl)cc(NS(C)(=O)=O)c2F)n1 [Encorafenib], the “Risk (Torsade de Pointes)” value is given as “(PR)”. For CCc1ccc(C(=O)C(C)CN2CCCCC2)cc1 (centres unmarked) [Eperisone], the “Risk (Torsade de Pointes)” value is listed as “(CR)”. In the case of CNC[C@H](O)c1ccc(O)c(O)c1 [Epinephrine], the “Risk (Torsade de Pointes)” value is given as “(SR)”. For COc1cccc2c1C(=O)c1c(O)c3c(c(O)c1C2=O)C[C@@](O)(C(=O)CO)C[C@@H]3O[C@H]1C[C@H](N)[C@@H](O)[C@H](C)O1 [Epirubicin], the “Risk (Torsade de Pointes)” value is listed as “(PR)”. In the case of C=C1C[C@@H]2CC[C@@]34C[C@H]5O[C@H]6[C@@H](O3)[C@H]3O[C@H](CC[C@@H]3O[C@H]6[C@H]5O4)CC(=O)C[C@@H]3[C@@H](OC)[C@@H](C[C@H](O)CN)O[C@H]3C[C@H]3O[C@@H](CC[C@@H]1O2)C[C@@H](C)C3=C [Eribulin], the “Risk (Torsade de Pointes)” value is listed as “(PR)”. In the case of CN(C)CCC[C@@]1(c2ccc(F)cc2)OCc2cc(C#N)ccc21 [Escitalopram], the “Risk (Torsade de Pointes)” value is given as “(KR)”. For COc1ccc2nc([S@@+]([O-])Cc3ncc(C)c(OC)c3C)[nH]c2c1 [Esomeprazole], the “Risk (Torsade de Pointes)” value is listed as “(CR)”. In the case of NC(N)=Nc1nc(CSCCC(N)=NS(N)(=O)=O)cs1 [Famotidine], the “Risk (Torsade de Pointes)” value is given as “(CR)”. For NC(=O)OCC(COC(N)=O)c1ccccc1 [Felbamate], the “Risk (Torsade de Pointes)” value is listed as “(PR)”. For CCNC(C)Cc1cccc(C(F)(F)F)c1 (centres unmarked) [Fenfluramine], the “Risk (Torsade de Pointes)” value is listed as “(SR)”. In the case of CCCCCCCCc1ccc(CCC(N)(CO)CO)cc1 [Fingolimod], the “Risk (Torsade de Pointes)” value is listed as “(PR)”. For O=c1[nH]cc(F)c(=O)[nH]1 [Fluorouracil], the “Risk (Torsade de Pointes)” value is listed as “(PR)”. For CNCCC(Oc1ccc(C(F)(F)F)cc1)c1ccccc1 (centres unmarked) [Fluoxetine], the “Risk (Torsade de Pointes)” value is listed as “(CR)”. In the case of C[C@@H]1C[C@H]2[C@@H]3C[C@H](F)C4=CC(=O)C=C[C@]4(C)[C@@]3(F)[C@@H](O)C[C@]2(C)[C@@]1(O)C(=O)SCF [Fluticasone], the “Risk (Torsade de Pointes)” value is given as “(SR)”. In the case of NS(=O)(=O)c1cc(C(=O)O)c(NCc2ccco2)cc1Cl [Furosemide], the “Risk (Torsade de Pointes)” value is listed as “(CR)”. For C[C@H]1NCc2cc(-c3ccc4c(=O)c(C(=O)O)cn(C5CC5)c4c3OC(F)F)ccc21 [Garenoxacin], the “Risk (Torsade de Pointes)” value is listed as “(CR)”.
